{"source": "patent US11883517B2", "about": "“External dermal composition and method for beautifying skin” (National Tsing Hua University, priority 2021, dated 2024)", "test_system": "EpiDerm™ SIT (EPI-200)", "test": "Skin irritation test, OECD 439", "settings": "test group 50 μM, positive control 5% solution, average of 3 repeats", "procedure": "In the present evaluation, the EpiDerm™ SIT (EPI-200) was used for skin irritation tests following the OECD 439 test guidelines.\nIn the skin irritation test, the double nitrosyl-iron complex at a concentration of 50 μM was used as the test group, Dulbecco's Phosphate-Buffered Saline (DPBS) was used as the negative control group, and 5% of sodium dodecyl sulfate (SDS) solution was used as a positive control group. The test was repeated 3 times, and the average value was used for evaluation."}
{"smiles": "CCCCCCCCCCCCOS(=O)(=O)[O-].[Na+]", "note": "[sodium dodecyl sulfate (SDS), sodium dodecyl sulfate]", "values": [{"measurement": "tissue survival rate", "result": 15.11, "unit": "%"}]}
